# In patent publication US20200121665A1, “PPAR GAMMA MODULATORS FOR TREATING CYSTIC DISEASES” (Indiana University Research and Technology Corporation, priority 2013, published 2020):
# Like-named read-outs stand apart in the source and are kept apart here.
# Legend:
# [1] = test system: PCK rat; details: for Statistics (a): KW % BW, significance compared to control / Statistics (a): Kidney Weight (KW), significance compared to control / KW % BW / Kidney Weight (KW) / LW % BW / Liver % Fibrocystic / Liver Weight (LW): 24 weeks
# Excerpt: PCK rat animal model of slowly-progressing PKD. The PCK rat is an animal model that has a orthologous genetic mutation to the human autosomal recessive polycystic kidney disease (ARPKD), but has the phenotypic characteristics of human ADPKD, including renal and liver fibrocystic disease. The Pck gene of the rat is an orthologue to the PKHD-1 gene responsible for ARPKD. The animal model develops both kidney and liver fibrocystic diseases, and is slow progressing. […] Only females are used in the study.
# Briefly, after weaning, test animals are fed a diet containing increasing doses of a PPARγ modulator, normalized to body weight, and compared to untreated control fed normal diet. A hematocrit is measured to assess the presence or absence of fluid retention. […] The untreated control group fed the same diet without any PPARγ modulators.
# Animals are sacrificed and total body weight is recorded. Total kidney weight is recorded, total liver weight is recorded, and heart weight is recorded. Blood is collected via cardiac puncture, and serum and plasma samples are collected. The liver and kidney were embedded in paraffin and transversely sectioned and stained with hematoxylin, and eosin. The percent kidney weight to body weight was calculated. After histology on the kidney, renal cyst volume was determined through point count stereology methods. From the total liver weight, the percent liver to body weight was calculated. Following histology and picrosiruis red staining, the percent fibrosis can be determined through point count stereology methods. Heart weight is determined and the percent heart weight to body weight is calculated to assess heart disease, such as due to fluid retention, a reported side effect associated with PPARγ agonist treatment. Hearts are preserved in 4% paraformaldehyde. Liver enzymes, glucose levels, and ion levels are evaluated using the blood and urine samples.
# [2] = test system: PCK rat; details: 14 week study, 20 mg/kg BW; cited from earlier work
smiles,measurement,setting,value
"CN(CCOc1ccc(CC2SC(=O)NC2=O)cc1)c1ccccn1 (centres unmarked) [Rosiglitazone, rosiglitazone]","Statistics (a): KW % BW, significance compared to control",[1]; 0.04 mg/kg BW diet,S
same,"Statistics (a): Kidney Weight (KW), significance compared to control",[1]; 0.04 mg/kg BW diet,S
same,KW % BW,"[1]; 0.04 mg/kg BW diet, n = 8",0.95 ± 0.15%
same,Kidney Weight (KW),"[1]; 0.04 mg/kg BW diet, n = 8",3.68 ± 0.14 g
same,LW % BW,"[1]; 0.04 mg/kg BW diet, n = 8",7.11 ± 0.27%
same,Liver % Fibrocystic,"[1]; 0.04 mg/kg BW diet, n = 8",35.36 ± 3.74%
same,Liver Weight (LW),"[1]; 0.04 mg/kg BW diet, n = 8",24.23 ± 0.10 g
same,KW % BW,"[1]; 0.4 mg/kg BW diet, n = 8",1.27 ± 0.08%
same,Kidney Weight (KW),"[1]; 0.4 mg/kg BW diet, n = 8",4.27 ± 0.22 g
same,LW % BW,"[1]; 0.4 mg/kg BW diet, n = 8",6.50 ± 0.57%
same,Liver % Fibrocystic,"[1]; 0.4 mg/kg BW diet, n = 8",36.81 ± 3.61%
same,Liver Weight (LW),"[1]; 0.4 mg/kg BW diet, n = 8",22.05 ± 2.07 g
same,"Statistics (a): KW % BW, significance compared to control",[1]; 4.0 mg/kg BW diet,S
same,"Statistics (a): Kidney Weight (KW), significance compared to control",[1]; 4.0 mg/kg BW diet,S
same,KW % BW,"[1]; 4.0 mg/kg BW diet, n = 3",0.94 ± 0.06%
same,Kidney Weight (KW),"[1]; 4.0 mg/kg BW diet, n = 3",3.56 ± 0.26 g
same,LW % BW,"[1]; 4.0 mg/kg BW diet, n = 3",5.97 ± 1.38%
same,Liver % Fibrocystic,"[1]; 4.0 mg/kg BW diet, n = 3",36.17 ± 0.38%
same,Liver Weight (LW),"[1]; 4.0 mg/kg BW diet, n = 3",22.66 ± 5.39 g
same,serum electrolytes,[1]; at any concentration,not altered
same,test animals died or had to be sacrificed during treatment due to cholangitis,[1]; high dose group,9/12
same,glucose,"[1]; rat, in vivo",not observed
same,hematocrits vs control animals,"[1]; rat, in vivo",not different from the control animals
same,side effects (increased body weight or cholangitis),"[1]; rat, in vivo",no detected side effects
CCc1ccc(CCOc2ccc(CC3SC(=O)NC3=O)cc2)nc1 (centres unmarked) [pioglitazone],kidney function by serum analysis,[2],well-preserved kidney function
same,liver enzymes by serum analysis,[2],increased
